Results as given in patent US20240083888A1, “SMALL MOLECULE INHIBITOR FOR CATHEPSIN C AND MEDICINAL USE THEREOF” (REISTONE BIOPHARMA COMPANY LIMITED, priority 2020, published 2024).
Where a name gives a salt, the structure may show the parent alone.

biological target: rhCatC (Homo sapiens (Human), UniProt P53634); assay: In vitro enzyme activity experiment of rhCatC (AMC fluorescence assay); assay type: biochemical; conditions: not given
Experimental: The in vitro inhibitory effect of compounds and positive control on rhCatC enzyme activity was evaluated by AMC fluorescence assay. rhCatC can catalyze the reaction of substrate peptide H-Gly-Arg-AMC, and release AMC to generate fluorescence. […] The compound was diluted with DMSO to a 384-well echo plate at a concentration of 100× of the highest concentration at the beginning of the experiment. 0.2 μL of the diluted compound was pipetted to a black-bottomed 384-well reaction plate for later use. The negative control well was DMSO. • 2) Activation of rhCatC: RhCatC and rhCatL were added to the activation buffer to obtain a final concentration of rhCatC of 100 μg/mL and a final concentration of rhCatL of 20 μg/mL, and incubated at room temperature for 1 hour. • 3) Enzyme activity reaction: Activated rhCatC was diluted to 0.4 μg/mL with the reaction buffer. The solution was added to the black-bottom 384-well reaction plate ([…]). 10 μL of the buffer was added for the vehicle control group. The plate containing compounds in its wells was incubated at room temperature for 30 minutes.
The RLU data was read, the inhibition rate was calculated, and the IC50 value was calculated according to the fitting curve of concentration and inhibition rate.

Chain of rhCatC (P53634 25-134): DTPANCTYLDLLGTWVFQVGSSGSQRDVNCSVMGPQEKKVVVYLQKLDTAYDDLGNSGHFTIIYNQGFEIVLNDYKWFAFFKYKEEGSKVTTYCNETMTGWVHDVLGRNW
Chain of rhCatC (P53634 231-394): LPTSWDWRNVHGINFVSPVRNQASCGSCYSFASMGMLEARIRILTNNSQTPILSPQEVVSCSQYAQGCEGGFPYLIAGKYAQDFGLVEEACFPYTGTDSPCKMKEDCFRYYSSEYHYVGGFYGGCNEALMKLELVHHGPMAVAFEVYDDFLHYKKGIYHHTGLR
Chain of rhCatC (P53634 395-463): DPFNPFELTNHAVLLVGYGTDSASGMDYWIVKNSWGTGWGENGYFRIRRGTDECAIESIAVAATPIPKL

`N#Cc1cc2c(cn1)-c1cc(F)c(C[C@@H](C#N)NC(=O)[C@@H]3CNCCCO3)cc1OC2` [Compound 19, (S)—N—((S)-1-Cyano-2-(3-cyano-9-fluoro-5H-chromeno[4,3-c]pyridin-8-yl)ethyl)-1,4-oxazepane-2-carboxamide] and `CS(=O)(=O)c1ccc2c(c1)-c1cc(F)c(CC(C#N)NC(=O)[C@@H]3CNCCCO3)cc1OC2` (stereo partly drawn) [Compound 43, (2S)—N-(1-Cyano-2-(2-fluoro-9-(methylsulfonyl)-6H-benzo[c]chromen-3-yl)ethyl)-1,4-oxazepane-2-carboxamide] are within 1.5-fold of each other in IC50: 32 nM for the first, 26 nM for the second.

same assay, conditions: rhCatC enzyme, substrate H-Gly-Arg-AMC; read-out: Biological activity IC50

Compared with `N#C[C@H](Cc1ccc2c(c1)CN(c1ccccc1)C2=O)NC(=O)C1(N)CCOCC1` [Compound 1, (S)-4-Amino-N-(1-cyano-2-(1-oxo-2-phenylisoindolin-5-yl)ethyl)tetrahydro-2H-pyran-4-carboxamide], `N#C[C@H](Cc1ccc2c(c1)C(=O)N(c1ccccc1)C2)NC(=O)C1(N)CCOCC1` [Compound 50, (S)-4-Amino-N-(1-cyano-2-(3-oxo-2-phenylisoindolin-5-yl)ethyl)tetrahydro-2H-pyran-4-carboxamide] is 2.2-fold lower in IC50: 42 nM for the first, 19 nM for the second.

Compared with `N#C[C@H](Cc1ccc2c(c1)CN(c1ccccc1)C2=O)NC(=O)[C@@H]1CNCCCO1` [Compound 2, (S)—N—((S)-1-Cyano-2-(1-oxo-2-phenylisoindolin-5-yl)ethyl)-1,4-oxazepane-2-carboxamide], `N#CC(Cc1ccc2c(c1)COc1cc(F)ccc1-2)NC(=O)[C@@H]1CNCCCO1` (stereo partly drawn) [Compound 15, (2S)—N-(1-Cyano-2-(3-fluoro-6H-benzo[c]chromen-8-yl)ethyl)-1,4-oxazepane-2-carboxamide] is 2.3-fold lower in IC50: 710 nM for the first, 304 nM for the second.

`N#CC(Cc1ccc2c(c1)CCCC2)NC(=O)[C@@H]1CNCCCO1` (stereo partly drawn) [Compound 3, (2S)—N-(1-Cyano-2-(5,6,7,8-tetrahydronaphthalen-2-yl)ethyl)-1,4-oxazepane-2-carboxamide trifluoroacetate] and `N#CC(Cc1ccc2c(c1)CCC2)NC(=O)[C@@H]1CNCCCO1` (stereo partly drawn) [Compound 5, (2S)—N-(1-Cyano-2-(2,3-dihydro-1H-inden-5-yl)ethyl)-1,4-oxazepane-2-carboxamide trifluoroacetate] are within 1.5-fold of each other in IC50: 4250 nM for the first, 3590 nM for the second.

`N#CC(Cc1ccc2c(c1)CCCC2)NC(=O)C1(N)CCOCC1` (centres unmarked) [Compound 4, 4-Amino-N-(1-cyano-2-(5,6,7,8-tetrahydronaphthalen-2-yl)ethyl)tetrahydro-2H-pyran-4-carboxamide] and `N#CC(Cc1ccc2c(c1)CCC2)NC(=O)C1(N)CCOCC1` (centres unmarked) [Compound 6, 4-Amino-N-(1-cyano-2-(2,3-dihydro-1H-inden-5-yl)ethyl)tetrahydro-2H-pyran-4-carboxamide] are within 1.5-fold of each other in IC50: 54 nM for the first, 56 nM for the second.

First: CN1CCc2cc(C[C@@H](C#N)NC(=O)[C@@H]3CNCCCO3)ccc2C1 [Compound 9, (S)—N—((S)-1-Cyano-2-(2-methyl-1,2,3,4-tetrahydroisoquinolin-6-yl)ethyl)-1,4-oxazepane-2-carboxamide]
Second: CN1CCc2cc(C[C@@H](C#N)NC(=O)C3(N)CCOCC3)ccc2C1 [Compound 51, (S)-4-Amino-N-(1-cyano-2-(2-methyl-1,2,3,4-tetrahydroisoquinolin-6-yl)ethyl)tetrahydro-2H-pyran-4-carboxamide]
The IC50 of the first is 45-fold higher: 1740 nM for the first, 39 nM for the second.

First: N#C[C@H](Cc1ccc2c(c1)OCCC2)NC(=O)C1(N)CCOCC1 [Compound 10, (S)-4-Amino-N-(2-(chroman-7-yl)-1-cyanoethyl)tetrahydro-2H-pyran-4-carboxamide]
Second: N#C[C@H](Cc1ccc2c(c1)COCC2)NC(=O)C1(N)CCOCC1 [Compound 52, (S)-4-Amino-N-(1-cyano-2-(isochroman-7-yl)ethyl)tetrahydro-2H-pyran-4-carboxamide trifluoroacetate]
The IC50 of the first is 1.9-fold lower: 74 nM for the first, 138 nM for the second.

`N#CC(Cc1ccc2c(c1)OCc1cc(F)ccc1-2)NC(=O)[C@@H]1CNCCCO1` (stereo partly drawn) [Compound 11, (2S)—N-(1-Cyano-2-(8-fluoro-6H-benzo[c]chromen-3-yl)ethyl)-1,4-oxazepane-2-carboxamide formate] and `N#Cc1cnc2c(c1)COc1cc(CC(C#N)NC(=O)[C@@H]3CNCCCO3)c(F)cc1-2` (stereo partly drawn) [Compound 33, (2S)—N-(1-Cyano-2-(3-cyano-9-fluoro-5H-chromeno[4,3-b]pyridin-8-yl)ethyl)-1,4-oxazepane-2-carboxamide] are within 1.5-fold of each other in IC50: 74 nM for the first, 85 nM for the second.

Going from `CC1(C)Oc2cc(C[C@@H](C#N)NC(=O)[C@@H]3CNCCCO3)c(F)cc2-c2ccc(C#N)cc21` [Compound 27, (S)—N—((S)-1-Cyano-2-(8-cyano-2-fluoro-6,6-dimethyl-6H-benzo[c]chromen-3-yl)ethyl)-1,4-oxazepane-2-carboxamide] to `N#C[C@H](Cc1cc2c(cc1F)-c1cc(C3COC3)c(F)cc1CO2)NC(=O)[C@@H]1CNCCCO1` [Compound 38A, (S)—N—((S)-1-Cyano-2-(2,8-difluoro-9-(oxetan-3-yl)-6H-benzo[c]chromen-3-yl)ethyl)-1,4-oxazepane-2-carboxamide], the IC50 falls from 23 nM to 1.3 nM (18-fold).

First: N#CC(Cc1ccc2c(c1)OCc1ccc(C3CCNC3)cc1-2)NC(=O)C1(N)CCOCC1 (centres unmarked) [Compound 34, 4-Amino-N-(1-cyano-2-(9-(pyrrolidin-3-yl)-6H-benzo[c]chromen-3-yl)ethyl)tetrahydro-2H-pyran-4-carboxamide]
Second: N#CC(Cc1ccc2c(c1)CCOc1cc(F)ccc1-2)NC(=O)C1(N)CCOCC1 (centres unmarked) [Compound 39, 4-Amino-N-(1-cyano-2-(3-fluoro-6,7-dihydrodibenzo[b,d]oxepin-9-yl)ethyl)tetrahydro-2H-pyran-4-carboxamide]
The IC50 of the first is 7.4-fold lower: 6.2 nM for the first, 46 nM for the second. The first is the more potent here.

Compared with `N#C[C@@H](Cc1cc2c(cc1F)-c1cc(C3COC3)c(F)cc1CO2)NC(=O)[C@@H]1CNCCCO1` [Compound 38B, (S)—N—((R)-1-Cyano-2-(2,8-difluoro-9-(oxetan-3-yl)-6H-benzo[c]chromen-3-yl)ethyl)-1,4-oxazepane-2-carboxamide], `N#C[C@H](Cc1ccc2c(c1)OCCN(c1ccc(F)cc1)C2=O)NC(=O)C1(N)CCOCC1` [Compound 44, (S)-4-Amino-N-(1-cyano-2-(4-(4-fluorophenyl)-5-oxo-2,3,4,5-tetrahydrobenzo[f][1,4]oxazepin-8-yl)ethyl)tetrahydro-2H-pyran-4-carboxamide] is 1.9-fold lower in IC50: 76 nM for the first, 39 nM for the second.

Going from `N#C[C@H](Cc1ccc2c(c1)oc1cc(F)ccc12)NC(=O)C1(N)CCOCC1` [Compound 42, (S)-4-Amino-N-(1-cyano-2-(7-fluorodibenzo[b,d]furan-3-yl)ethyl)tetrahydro-2H-pyran-4-carboxamide] to `N#C[C@H](Cc1ccc2c(c1)CN(c1ccc(F)cc1)C2)NC(=O)C1(N)CCOCC1` [Compound 54, (S)-4-Amino-N-(1-cyano-2-(2-(4-fluorophenyl)isoindolin-5-yl)ethyl)tetrahydro-2H-pyran-4-carboxamide], the IC50 rises from 5.7 nM to 28 nM (4.9-fold).

First: N#Cc1ccc(N2Cc3cc(C[C@@H](C#N)NC(=O)C4(N)CCOCC4)ccc3C2=O)cc1 [Compound 45, (S)-4-Amino-N-(1-cyano-2-(2-(4-cyanophenyl)-1-oxoisoindolin-5-yl)ethyl)tetrahydro-2H-pyran-4-carboxamide]
Second: N#Cc1cccc(N2Cc3cc(C[C@@H](C#N)NC(=O)C4(N)CCOCC4)ccc3C2=O)c1 [Compound 47, (S)-4-Amino-N-(1-cyano-2-(2-(3-cyanophenyl)-1-oxoisoindolin-5-yl)ethyl)tetrahydro-2H-pyran-4-carboxamide formate]
The IC50 of the first is 2.5-fold higher: 72 nM for the first, 29 nM for the second. The second is the more potent here.

Compared with `N#Cc1ccc(C(=O)N2Cc3ccc(C[C@@H](C#N)NC(=O)C4(N)CCOCC4)cc3C2)cc1` [Compound 46, (S)-4-Amino-N-(1-cyano-2-(2-(4-cyanobenzoyl)isoindolin-5-yl)ethyl)tetrahydro-2H-pyran-4-carboxamide], `N#C[C@H](Cc1ccc2c(c1)CN(C(=O)c1ccc(F)cc1)C2)NC(=O)C1(N)CCOCC1` [Compound 55, (S)-4-Amino-N-(1-cyano-2-(2-(4-fluorobenzoyl)isoindolin-5-yl)ethyl)tetrahydro-2H-pyran-4-carboxamide] is 3.2-fold higher in IC50: 54 nM for the first, 174 nM for the second. The first is the more potent here.

Compared with `Cn1c(=O)oc2ccc(N3Cc4cc(C[C@@H](C#N)NC(=O)C5(N)CCOCC5)ccc4C3=O)cc21` [Compound 48, (S)-4-Amino-N-(1-cyano-2-(2-(3-methyl-2-oxo-2,3-dihydrobenzo[d]oxazol-5-yl)-1-oxoisoindolin-5-yl)ethyl)tetrahydro-2H-pyran-4-carboxamide], `N#C[C@H](Cc1ccc2c(c1)CCN(c1ccccc1)C2=O)NC(=O)C1(N)CCOCC1` [Compound 49, (S)-4-Amino-N-(1-cyano-2-(1-oxo-2-phenyl-1,2,3,4-tetrahydroisoquinolin-6-yl)ethyl)tetrahydro-2H-pyran-4-carboxamide] is 2-fold higher in IC50: 29 nM for the first, 57 nM for the second. The first is the more potent here.

Going from `N#C[C@H](Cc1ccc2c(c1)OCCN(c1ccc(F)cc1)C2)NC(=O)C1(N)CCOCC1` [Compound 53, (S)-4-Amino-N-(1-cyano-2-(4-(4-fluorophenyl)-2,3,4,5-tetrahydrobenzo[f][1,4]oxazepin-8-yl)ethyl)tetrahydro-2H-pyran-4-carboxamide] to `N#C[C@H](Cc1ccc2c(c1)CCN(C(=O)c1ccc(F)cc1)C2)NC(=O)C1(N)CCOCC1` [Compound 56, (S)-4-Amino-N-(1-cyano-2-(2-(4-fluorobenzoyl)-1,2,3,4-tetrahydroisoquinolin-6-yl)ethyl)tetrahydro-2H-pyran-4-carboxamide], the IC50 falls from 196 nM to 37 nM (5.3-fold).
